Measurements published in patent US10154813B1, “Method and apparatus for patient skin color monitoring and drug efficacy measurement” (priority 2017, dated 2018).

Tests used:
skin capillaries = test: Topical wet run solution on skin: capillary dilation / red shift; assay type: in vivo, human; details: applied to skin surface
Source text: The inventor's work has identified previously unknown differences in the reactions of healthy and unhealthy individuals to acetylcholine and other vasodilative substances when applied to the skin. […] Additional efficacious wet run solutions include bradykinin, adenosine, vasopressin, nitroglycerin, sildenafil, serotonin, and thrombin.
“Wet runs” can be performed according to the same general protocol described above for dry runs, which are incorporated herein but will not be fully repeated for brevity. The difference is that for wet runs the skin area being measured with the color detector is wetted with a chemical solution (a.k.a. “Wet run solution”). For example, a solution of one or more chemicals (e.g. acetylcholine and/or thrombin) in water, alcohol, petroleum jelly, or saline. The solution can be applied by wiping or covering the area with a wet gauze pad. The solution may be applied once at the beginning of the procedure before the color detector is positioned on the skin, or applied more than once throughout the procedure. Suspensions of effective chemicals (as opposed to solutions), viscous spreadable chemical applications, lipid-carrier compounds, and potentially non-wet applications of effective chemicals are also contemplated.
Wet runs can also be used as a partial substitute for exercise in a clinical setting, such as for patients who are not physically able to perform stress test exercises. The chemical alone provokes the same general types of differential responses as stress test exercise. For example, in a healthy at-rest individual, acetylcholine alone causes skin capillary dilation, which increases blood perfusion and (because blood is red) causes the skin to become more red. In an unhealthy individual, the acetylcholine alone will cause only low, negligible, or even negative red shift. Thus, the differential reactions to application of acetylcholine (for example) can be used to assess vascular health or the effectiveness of medication even without a stress test.

[1] = patients, by body surface area; cited from earlier work
coronary arteries = details: cited from earlier work
[2] = system: microvascular endothelium (skin, right anterior thigh) of a peripheral artery disease patient; test: Skin colorimetry (a, b, L) before and after application of “μ” in a peripheral artery disease patient on cilostazol; assay type: in vivo, human; details: 50 mg twice a day; for a dry: baseline (dry)
Source text: As stated above, one available quantitative color system is the L*a*b* color space or Hunter L/a/b color space, which can be visualized as a rectangular 3D coordinate system. L indicates lightness, a is the red/green coordinate, and b is the yellow/blue coordinate. L can have a value from 0 (black) to 100 (perfect reflection). The a and b axes have no numerical limits. Coordinate a is positive when red, and negative when green. Positive b is yellow, and negative b is blue. Colors can be described numerically using numerical values for L, a, and b. Differences between two colors can be quantified for each of the individual L/a/b values (ΔL, Δa, Δb). Overall differences between two colors can be derived numerically based on the three Δ values.
μ=drug applied before colorimeter and/or spectrophotometer measurements.
L1, a1, b1=Initial measurement.
L2, a2, b2=Measurement with μ applied. L2−L1=ΔLμ(L2 minus L1)=change in lightness and darkness(+=lighter,−=darker) a2−a1=Δaμ(a2 minus a1)=change in red and green(+=redder,−=greener) b2−b1=Δbμ(b2 minus b1)=change in yellow and blue(+=yellower,−=bluer)
When the arteries in the lower extremities become blocked and stenosed with various disease manifestations such as diabetes, hypercholesterolemia there is an increased amount of claudication that occurs with the lower extremities with minimal exertion. Using the current methodology described herein the patient can ascertain if the effects of the various antiplatelet and statin medication's i.e. Lipitor, Crestor are affective in improving the blood flow to the lower extremities. By taking baseline measurements in the lower extremities in particular locations in the legs such as the anterior tibial surface of a right or left leg, medication can be then administered to the patient. After the corresponding 5 half-lives or more have past of drug “δ” the procedure above can be implemented and test run to determine the a, b, L after drug “μ” has been applied. This information can then be used by calculating the measurements with the equation as described above the change in the colorimetric and spectrophotometric variables that can be derived. This will then allow for the ability of the patient in the healthcare provider to know which drug provides the maximum increase in cardio vascular flow to the area based on the information of the homeostasis of the microvascular endothelial system. The more a percentage change of equal to or greater than 10%, the better the flow that would be understood to be an improvement of the peripheral circulation of that area. It will also allow for the proper titration of medication of that particular area. If it seems to improve the flow then, the patient and the healthcare provider may decide to increase the dosage of the medication to have a better benefit. This will allow for an objective determination of how well the patient is responding to the medication while minimizing the side effects of the drugs.
With reference to the table below and to FIG. 19, the table and the graph show a patient with known peripheral artery disease diagnosed by angiogram in the right distal common femoral artery who is having their right anterior thigh continuously evaluated at the same location for the a, b, L calculations after they were initially started on 50 mg of cilostazol twice a day from December 2016 until August 2017. The values of the of a, b, L, are calculated after “μ” was applied which is shown in color red.

**Q.** Which “efficacy as wet run solution” value (skin capillaries) does the source give for `Nc1ncnc2c1ncn2[C@@H]1O[C@H](CO)[C@@H](O)[C@H]1O` [adenosine] here?
**A.** efficacious

**Q.** For thrombin, which “efficacy as wet run solution” value (skin capillaries) is on record?
**A.** efficacious

**Q.** Which “cumulative dose associated with an increased risk of cardiomyopathy” value [1] does the source give for `COc1cccc2c1C(=O)c1c(O)c3c(c(O)c1C2=O)C[C@@](O)(C(=O)CO)C[C@@H]3O[C@H]1C[C@H](N)[C@H](O)[C@H](C)O1` [Adriamycin] here?
**A.** above 550 mg/m2

**Q.** With `NC(=O)CC[C@@H]1NC(=O)[C@H](Cc2ccccc2)NC(=O)[C@H](Cc2ccc(O)cc2)NC(=O)[C@@H](N)CSSC[C@@H](C(=O)N2CCC[C@H]2C(=O)N[C@@H](CCCN=C(N)N)C(=O)NCC(N)=O)NC(=O)[C@H](CC(N)=O)NC1=O` [vasopressin] as the compound, how does the “efficacy as wet run solution” value (skin capillaries) read?
**A.** efficacious

**Q.** With `CC(=O)OCC[N+](C)(C)C` [acetylcholine] as the compound, how does the temporary occlusion (coronary arteries; eight arteries with advanced stenosis) read?
**A.** temporary occlusion in five

**Q.** What does the source list for `O=C1CCc2cc(OCCCCc3nnnn3C3CCCCC3)ccc2N1` [Cilostazol, cilostazol]?
**A.** effect on blood flow to the microvascular endothelium (a shift after μ) ([2]; 9 months monitoring): improved blood flow; L ([2]; April 2017): 70.42; b ([2]; April 2017): 16.14; L ([2]; August 2017): 65.59; b ([2]; August 2017): 16.8; L ([2]; December 2016): 65.09; b ([2]; December 2016): 15.65; L ([2]; February 2017): 71.68; b ([2]; February 2017): 14.67; L ([2]; January 2017): 58.14; b ([2]; January 2017): 10.51; L ([2]; July 2017): 71.63; b ([2]; July 2017): 14.62; L ([2]; June 2017): 66.06; b ([2]; June 2017): 17.75; L ([2]; March 2017): 70.24; b ([2]; March 2017): 15.42; L ([2]; May 2017): 69.91; b ([2]; May 2017): 15.64; a dry ([2]; April 2017): 5.14; a dry ([2]; August 2017): 5.31; a dry ([2]; December 2016): 4.58; a dry ([2]; February 2017): 4.70; a dry ([2]; January 2017): 4.62; a dry ([2]; July 2017): 5.15; a dry ([2]; June 2017): 5.35; a dry ([2]; March 2017): 5.12; a dry ([2]; May 2017): 5.02; a wet after “μ” ([2]; April 2017): 7.33; a wet after “μ” ([2]; August 2017): 10.32; a wet after “μ” ([2]; December 2016): 5.35; a wet after “μ” ([2]; February 2017): 7.33; a wet after “μ” ([2]; January 2017): 6.33; a wet after “μ” ([2]; July 2017): 8.95; a wet after “μ” ([2]; June 2017): 9.40; a wet after “μ” ([2]; March 2017): 7.62; a wet after “μ” ([2]; May 2017): 8.06

**Q.** For `NCCc1c[nH]c2ccc(O)cc12` [serotonin], which “efficacy as wet run solution” value (skin capillaries) is on record?
**A.** efficacious

**Q.** With `O=[N+]([O-])OCC(CO[N+](=O)[O-])O[N+](=O)[O-]` [nitroglycerin] as the compound, how does the “efficacy as wet run solution” value (skin capillaries) read?
**A.** efficacious

**Q.** And the vessel response (coronary arteries; all vessels (normal and diseased))?
**A.** All vessels dilated

**Q.** Which “efficacy as wet run solution” value (skin capillaries) does the source give for `CCCc1nn(C)c2c(=O)[nH]c(-c3cc(S(=O)(=O)N4CCN(C)CC4)ccc3OCC)nc12` [sildenafil] here?
**A.** efficacious
